System: Escherichia coli PQ37

Cc1cc(-c2noc(C(F)(F)F)n2)ccc1OCCCc1cc(C(=O)N(C)C)no1 [Compound 8, N,N-dimethyl-5-(3-{2-methyl-4-[5-(trifluoromethyl)-1,2,4-oxadiazol-3-yl]phenoxy}propyl)isoxazole-3-carboxamide]
Mutagenicity: NO
